# From US5786333A, “Platelet aggregation inhibitors” (COR Therapeutics, Inc., priority 1995, dated 1998)
# Read-outs that look alike come from different tables or passages of the source. Where a SMILES comes first, the peptide text is derived from it. Bridges are numbered along the chain shown (N, C = ends).
# Assays:
# [1] = system: open chest dog; test: Folts model of thrombosis in dog coronary artery (cyclic flow reductions); format: in vivo
# Protocol: A. Initiation of cyclic flow reductions (CFRs) in open chest dog. An occluder placed on the left anterior descending (LAD) coronary artery of a 20 kg dog, as previously described was performed.
# [2] = target: T1, GP IIb-IIIa (Homo sapiens, UniProt P05106+P08514); test: Fibrinogen/GP IIb-IIIa plate binding assay; conditions: for differential inhibition of fibrinogen/GP IIb-IIIa binding as compared to vitronectin/vitronectin receptor binding: plate assays, FIG. 30; for inhibition of binding of fibrinogen to GP IIb-IIIa (in words): plate assay
# T1 construct: Purified platelet GP IIb-IIIa receptor was prepared as described by Fitzgerald, L. A., et al; from tissue; host or cells: platelets
# Protocol: In the assay, GP IIb-IIIa, prepared in purified form, for example as described by Fitzgerald, L. A., et al., Anal Biochem (1985) 151:169-177, incorporated herein by reference, is coated onto a solid support such as beads, test tubes, or microtiter plates. The coated support is then contacted with fibrinogen and with the test material and incubated for a sufficient time to permit maximal binding of fibrinogen to the immobilized GP IIb-IIIa. Fibrinogen is typically provided at a concentration of about 5-50 nM and the test material can, if desired, be added at a series of dilutions. Typical incubations are 2-4 hr at 35° C., the time and temperature being interdependent.
# After incubation, the solution containing the fibrinogen and test material is removed and the level of binding of fibrinogen measured by quantitating bound fibrinogen to GP IIb-IIIa. Any suitable means of detection may be used, but it is convenient to employ labeled fibrinogen, for example using radioactive, fluorescent or biotinylated labels. Such methods are well known and need not be elaborated here.
# In this case, percent inhibition may be calculated using the amount of Fg bound in the control as representing the basis, so that [formula] Other measures of inhibition effectiveness, such as IC50, may also be used.
# Purified platelet GP IIb-IIIa receptor was prepared as described by Fitzgerald, L. A., et al., Anal Biochem (1985) 151:169-177. Vitronectin receptor was prepared as described by Smith, J. W., J Biol Chem (1988) 263:18726-18731. After purification, the receptors were stored in 0.1% Triton X-100 at 0.1-1.0 mg/ml.
# The receptors were coated to the wells of 96-well flat-bottom ELISA plates (Linbro EIA-Plus microtiter plate, Flow Laboratories) after diluting 1:200 with a solution of […], 150 mM NaCl, 1 mM CaCl2, pH 7.4, to reduce the Triton X-100 concentration to below its critical micellar concentration and adding an aliquot of 100 ul to each well. The wells were all allowed to incubate overnight at 4° C., and then aspirated to dryness. Additional sites were blocked by the addition of bovine serum albumin (BSA) at 35 mg/ml in the above buffer for 2 hr at 30° C. to prevent nonspecific binding. The wells were then washed once with binding buffer ([…] Tris-HCl, 100 mM NaCl, 2 mM CaCl2, 1 mg/ml BSA).
# The corresponding ligands (fibrinogen, von Willebrand Factor, or vitronectin) were labeled with ^125 I or conjugated to biotin using commercially available re-agents and standard protocols. The labeled ligands were added to the receptor-coated wells at final concentration of 10 nM (100 ul/well) and incubated for 3 h at 30° C. in the presence or absence of the test samples. After incubation, the wells are aspirated to dryness and bound ligand is quantitated.
# (§1) For ^125 I-labeled ligands, the protein is solubilized with 250 ul SDS. For biotinylated ligands, the bound protein is detected by the addition of antibiotin antibody conjugated to alkaline phosphatase followed by addition of substrate (p-nitrophenyl phosphate), and determination of the optical density of each well at 405 nm.
# Sixty-eight crude, lyophilized snake venoms obtained from either Sigma Chemical Company (St. Louis, Mo.) or Miami Serpentarium Labs (Salt Lake City, Utah) were dissolved at 1 mg/ml in buffer (50 mM Tris, 100 mM NaCl, 0.02% azide, 2 mM CaCi2). One ml aliquots of the solutions were subjected to ultrafiltration through Centrocon-10 (YM membrane) microconcentrators (Amicon, Danvers, Mass.). The filtrates were used as test samples in the receptor/ligand assay of paragraph A using the GP IIb-IIIa/fibrinogen system, and detecting binding using biotinylated fibrinogen.
# [3] = target: human platelets (Homo sapiens, UniProt P05106+P08514); test: ADP-induced human platelet aggregation in platelet rich plasma; format: cell-based
# Protocol: In these assays, washed platelets are combined with fibrinogen, Ca^+2 and the material to be tested.
# Platelet rich plasma (PRP) was obtained from a healthy human volunteer. Aggregation was induced by the addition of 4 uM ADP to 0.5 ml PRP in an aggregometer (Chrono-log Corp.).
# Fractions were concentrated to one-half their original volume using a Speed-Vac concentrator (Savant) followed by lyophilization. Samples were then reconstituted in 1 ml distilled water and aliquots (10-50 ul) assayed for their ability to inhibit human platelet aggregation in platelet-rich plasma induced by 20 uM ADP using a whole blood aggregometer (Chrono-Log Corp., Havertown, Pa.).
# [4] = system: M21 melanoma cells; test: M21 melanoma cell attachment to vitronectin; format: cell-based; conditions: for inhibition of M21 melanoma cell attachment to vitronectin (in words): 35S-methionine labelled cells, vitronectin-coated plates
# Protocol: M21 melanoma cells, which express high levels of the vitronectin receptor, were metabolically labelled with ^35 S-methionine, and then added to 24--well tissue culture plates coated with vitronectin. An incubation period of 1 hr at 37° C. was allowed for cell attachment, and this was followed by a wash to remove non-adherent cells. After washing, the adherent cells were solubilized, and the supernatants placed in a liquid scintillation counter. The fraction of cells remaining adherent was calculated by dividing the cpm in the solubilized supernatants by the cpm in the total number of cells added to each well. The effects of purifed snake venom peptides and synthetic cyclic peptides on cell adhesion was determined by including them with the M21 cells during the incubation period.
# M21 melanoma cells were labelled with ^35 S-methionine, and then added to vitronectin-coated plates in the presence of the indicated concentrations of purified snake venom peptides. Cell attachment was measured by solubilizing the cells remaining after an incubation and wash, as described in Section C, on page 40.
# [5] = target: T2, vitronectin receptor (Homo sapiens, UniProt P05106+P06756); test: Vitronectin/vitronectin receptor plate binding assay
# T2 construct: Vitronectin receptor was prepared as described by Smith, J. W., J Biol Chem (1988) 263:18726-18731; from tissue; the cited method uses human placenta (own knowledge)
# Description: The assay systems of the invention further include characterization of the PAI specificity by binding inhibition assays identical to that above but substituting other adhesive proteins for Fg and other receptors for GP IIb-IIIa. In particular, inhibition of the binding of vitronectin to the vitronectin receptor; fibronectin to the fibronectin receptor; fibronectin to GP IIb-IIIa and fibrinogen and/or vWF to GP IIb-IIIa may be assessed. The adhesive protein and receptors for these assays are available in the art.
# Purified platelet GP IIb-IIIa receptor was prepared as described by Fitzgerald, L. A., et al., Anal Biochem (1985) 151:169-177. Vitronectin receptor was prepared as described by Smith, J. W., J Biol Chem (1988) 263:18726-18731. […]
# The corresponding ligands (fibrinogen, von Willebrand Factor, or vitronectin) were labeled with ^125 I or conjugated to biotin using commercially available re-agents and standard protocols. […] After incubation, the wells are aspirated to dryness and bound ligand is quantitated.
# as §1, with “nm. […]” for “nm.”
# [6] = target: platelet receptors (Homo sapiens, UniProt P05106+P08514); conditions: read-out: IC50 (affinity of interaction with platelet receptors); background art; cited from earlier work
# [7] = ADP-induced human platelet aggregation, table of Example 17, read-out: Appr. IC50
# T2 sequence (P06756 31-889 limits assumed): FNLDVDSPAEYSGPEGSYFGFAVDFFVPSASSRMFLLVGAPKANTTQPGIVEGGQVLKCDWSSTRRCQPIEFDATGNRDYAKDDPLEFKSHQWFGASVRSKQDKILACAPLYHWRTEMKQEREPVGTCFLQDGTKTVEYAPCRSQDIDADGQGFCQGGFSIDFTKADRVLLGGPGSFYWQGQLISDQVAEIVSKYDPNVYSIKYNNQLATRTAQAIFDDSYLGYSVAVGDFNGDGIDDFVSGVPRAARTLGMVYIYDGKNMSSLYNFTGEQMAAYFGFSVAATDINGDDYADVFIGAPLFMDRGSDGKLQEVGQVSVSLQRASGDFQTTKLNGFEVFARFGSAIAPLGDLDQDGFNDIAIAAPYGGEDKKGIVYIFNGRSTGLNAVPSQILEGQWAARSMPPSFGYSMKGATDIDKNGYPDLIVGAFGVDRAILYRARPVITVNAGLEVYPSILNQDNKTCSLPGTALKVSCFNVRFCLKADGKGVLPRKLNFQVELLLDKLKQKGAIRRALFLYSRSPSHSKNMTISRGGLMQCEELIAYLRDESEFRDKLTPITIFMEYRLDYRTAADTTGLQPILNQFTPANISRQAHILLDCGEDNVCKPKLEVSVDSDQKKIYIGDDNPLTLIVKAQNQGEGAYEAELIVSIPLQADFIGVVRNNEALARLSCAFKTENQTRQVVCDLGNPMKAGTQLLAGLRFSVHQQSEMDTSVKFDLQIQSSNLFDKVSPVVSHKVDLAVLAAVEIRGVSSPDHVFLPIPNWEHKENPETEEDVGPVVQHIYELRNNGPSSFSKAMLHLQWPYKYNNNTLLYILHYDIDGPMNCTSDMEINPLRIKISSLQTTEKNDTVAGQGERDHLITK
# T2 sequence (P06756 891-1048 partner limits assumed): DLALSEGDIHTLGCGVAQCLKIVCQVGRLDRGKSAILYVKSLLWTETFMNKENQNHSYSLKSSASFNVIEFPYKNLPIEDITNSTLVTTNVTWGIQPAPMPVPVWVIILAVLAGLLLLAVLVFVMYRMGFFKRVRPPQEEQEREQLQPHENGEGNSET
# T2 sequence (P05106 27-788): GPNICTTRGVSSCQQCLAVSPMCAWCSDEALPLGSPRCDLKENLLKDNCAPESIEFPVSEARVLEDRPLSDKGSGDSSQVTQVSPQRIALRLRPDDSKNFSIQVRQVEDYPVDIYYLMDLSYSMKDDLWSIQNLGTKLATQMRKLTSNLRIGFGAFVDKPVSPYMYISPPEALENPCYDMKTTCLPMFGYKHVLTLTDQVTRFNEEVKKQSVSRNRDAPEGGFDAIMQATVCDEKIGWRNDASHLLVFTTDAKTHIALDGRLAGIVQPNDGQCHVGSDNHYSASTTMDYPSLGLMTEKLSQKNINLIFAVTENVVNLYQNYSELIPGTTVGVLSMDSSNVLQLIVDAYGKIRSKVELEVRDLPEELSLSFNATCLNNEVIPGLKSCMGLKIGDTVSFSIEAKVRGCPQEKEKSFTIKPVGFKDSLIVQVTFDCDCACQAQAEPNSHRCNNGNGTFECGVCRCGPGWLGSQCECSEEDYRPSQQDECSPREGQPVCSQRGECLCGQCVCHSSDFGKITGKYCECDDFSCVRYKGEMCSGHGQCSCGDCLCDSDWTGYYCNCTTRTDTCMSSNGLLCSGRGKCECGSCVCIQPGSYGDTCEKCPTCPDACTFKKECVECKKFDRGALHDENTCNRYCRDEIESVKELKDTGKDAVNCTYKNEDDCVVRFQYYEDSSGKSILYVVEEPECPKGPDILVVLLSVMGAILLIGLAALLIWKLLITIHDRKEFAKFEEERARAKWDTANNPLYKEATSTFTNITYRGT
compound,measurement,setting,value
C[C@H](NC(=O)[C@@H]1CSSC[C@H](NC(=O)CN)C(=O)NCC(=O)N[C@@H](CCCCN)C(=O)NCC(=O)N[C@@H](CC(=O)O)C(=O)N[C@@H](Cc2c[nH]c3ccccc23)C(=O)N2CCC[C@H]2C(=O)N1)C(N)=O [#3],effect on cyclic flow reductions (CFRs) in LAD coronary artery,"[1]; 10 mg infused into a peripheral vein, 20 kg open chest dog, FIG. 36",partial ablation of the CFRs
same,effect on cyclic flow reductions (CFRs) in LAD coronary artery,"[1]; second infusion of 40 mg into a peripheral vein, open chest dog, FIG. 37",complete ablation of the CFRs
C[C@H](NC(=O)[C@@H]1CSSC[C@H](NC(=O)CN)C(=O)N[C@@H](CCCCN)C(=O)NCC(=O)N[C@@H](CC(=O)O)C(=O)N[C@@H](Cc2c[nH]c3ccccc23)C(=O)N2CCC[C@H]2C(=O)N1)C(N)=O [#4] (H-GCKGDWPCA-NH2; disulfide 2-8),differential inhibition of fibrinogen/GP IIb-IIIa binding as compared to vitronectin/vitronectin receptor binding,[2],highest differential
NCCCC[C@@H]1NC(=O)CNC(=O)[C@@H](N)CSSC[C@@H](C(N)=O)NC(=O)[C@@H]2CCCN2C(=O)[C@H](Cc2c[nH]c3ccccc23)NC(=O)[C@H](CC(=O)O)NC(=O)CNC1=O [#5] (H-CGKGDWPC-NH2; disulfide 1-8),platelet aggregation inhibition (in words),[3],excellent platelet aggregation inhibition activities
same,differential inhibition of fibrinogen/GP IIb-IIIa binding as compared to vitronectin/vitronectin receptor binding,[2],quite specific
C[C@H](NC(=O)[C@@H]1CSSC[C@H](NC(=O)CN)C(=O)NCC(=O)N[C@@H](CCCCN)C(=O)NCC(=O)N[C@@H](CC(=O)O)C(=O)N[C@@H](Cc2c[nH]c3ccccc23)C(=O)N1)C(N)=O [#6] (H-GCGKGDWCA-NH2; disulfide 2-8),IC50,[3]; [7],> 200 µM
C[C@H](NC(=O)[C@@H]1CSSC[C@H](NC(=O)CN)C(=O)N[C@@H](CCCCN)C(=O)NCC(=O)N[C@@H](CC(=O)O)C(=O)N[C@@H](Cc2c[nH]c3ccccc23)C(=O)N1)C(N)=O [#7] (H-GCKGDWCA-NH2; disulfide 2-7),platelet aggregation inhibition (in words),[3],excellent platelet aggregation inhibition activities
same,IC50,"[3]; text of Example 17, read-out: IC50 for ability to inhibit ADP-induced human platelet aggregation",100 µM
same,differential inhibition of fibrinogen/GP IIb-IIIa binding as compared to vitronectin/vitronectin receptor binding,[2],quite specific
NCCCC[C@@H]1NC(=O)[C@@H](N)CSSC[C@@H](C(N)=O)NC(=O)[C@@H]2CCCN2C(=O)[C@H](Cc2c[nH]c3ccccc23)NC(=O)[C@H](CCC(=O)O)NC(=O)CNC1=O [#35] (H-CKGEWPC-NH2; disulfide 1-7),IC50,[3]; [7],> 300 µM
C[C@H](NC(=O)[C@@H]1CSSC[C@H](NC(=O)CN)C(=O)NCC(=O)N[C@@H](CCCCN)C(=O)NCC(=O)N[C@@H](CC(=O)O)C(=O)N[C@@H](Cc2c[nH]c3ccccc23)C(=O)N1)C(N)=O [Analog 6] (H-GCGKGDWCA-NH2; disulfide 2-8),differential inhibition of fibrinogen/GP IIb-IIIa binding as compared to vitronectin/vitronectin receptor binding,[2],differentially capable
CC(=O)N[C@H]1CSSC[C@@H](C(N)=O)NC(=O)[C@H](CC(=O)O)NC(=O)CNC(=O)[C@H](CCCCN)NC1=O [Analog 8] (Ac-CKGDC-NH2; disulfide 1-5),differential inhibition of fibrinogen/GP IIb-IIIa binding as compared to vitronectin/vitronectin receptor binding,[2],differentially capable
"C[C@H](NC(=O)[C@@H]1CSSC[C@H](NC(=O)CN)C(=O)NCC(=O)N[C@@H](CCCCN)C(=O)NCC(=O)N[C@@H](CC(=O)O)C(=O)N[C@@H](Cc2c[nH]c3ccccc23)C(=O)N2CCC[C@H]2C(=O)N1)C(N)=O [Analog #3, G-C-G-K-G-D-W-P-C-A-NH2]",inhibition of M21 melanoma cell attachment to vitronectin (in words),[4],lack of ability
same,concentration up to which ineffective on M21 cell attachment to vitronectin,[4]; FIG. 32,> 60 µM
"N=C(N)NCCC[C@H](N)C(=O)NCC(=O)N[C@@H](CC(=O)O)C(=O)N[C@@H](Cc1c[nH]c2ccccc12)C(N)=O [RGDW-NH2, reference compound] (H-RGDW-NH2)",inhibition of binding of fibrinogen to GP IIb-IIIa (in words),[2],very similar in activity to cyclic GCGRGDWPCA-NH2
C[C@H](NC(=O)[C@@H]1CSSC[C@H](NC(=O)CN)C(=O)NCC(=O)N[C@@H](CCCNC(=N)N)C(=O)NCC(=O)N[C@@H](CC(=O)O)C(=O)N[C@@H](Cc2c[nH]c3ccccc23)C(=O)N2CCC[C@H]2C(=O)N1)C(N)=O [reference compound] (H-GCGRGDWPCA-NH2; disulfide 2-9),inhibition of M21 melanoma cell attachment to vitronectin (in words),[4],potent inhibitors of cell attachment
same,inhibition of M21 melanoma cell attachment to vitronectin (in words),[4]; listed as cyclic RGD compound,ability
ECADGLCCDQCRFLKKGTVCRVAKGDWNDDTCTGQSC- D-C-P-R-N-G-L-Y-G (ECADGLCCDQCRFLKKGTVCRVAKGDWNDDTCTGQSCDCPRNGLYG) [Analog #1],platelet aggregation inhibition (in words),[3],potent inhibitors of platelet aggregation
same,inhibition of M21 melanoma cell attachment to vitronectin (in words),[4],neither barbourin nor Peptide 1 (truncated barbourin) had a significant effect
EEPCATGPCCRRCKFKRAGKVCRVAKGDWNNDYCTGKSCDCPRNPWNG (EEPCATGPCCRRCKFKRAGKVCRVAKGDWNNDYCTGKSCDCPRNPWNG) [Analog #2],inhibition of binding of vitronectin to vitronectin receptor (in words),[5],inability to inhibit
same,inhibition of binding of fibrinogen to GP IIb-IIIa (in words),[2],ability
HHLGGAQKAGDV,IC50,[6],10 to 100 µM
